Measured values published in PMC5547389, “Structure-activity relationships and molecular docking studies of chromene and chromene based azo chromophores: A novel series of potent antimicrobial and anticancer agents” (EXCLI Journal, 2017).
In brackets after ≈: the same amount, converted by molar mass.

Experiments:
[1] = tested on: human breast adenocarcinoma (MCF-7); assay: Cytotoxic screening; format: cell-based; conditions: for IC50: Homo sapiens, MCF7, read-out: IC50 MCF-7
Method: (§1) Human colon carcinoma (HCT-116), human hepatocellular carcinoma (HEPG-2), adenocarcinomic human alveolar basal epithelial cell (A-549), and human breast adenocarcinoma (MCF-7) cell lines were obtained from the American Type Culture Collection (ATCC, Rockville, MD). The cells were grown on RPMI-1640 medium supplemented with 10 % inactivated fetal calf serum and 50 µg/ml gentamycin. The cells were maintained at 37 °C in a humidified atmosphere with 5 % CO2 and were subcultured two to three times a week. Potential cytotoxicity of the compounds was evaluated on tumor cells using the method of Gangadevi and Muthumary (2007[21]) (Klancnik et al., 2010[36]). The cells were grown as monolayers in growth RPMI-1640. The monolayers of 104 cells adhered at the bottom of the wells in a 96-well microtiter plate incubated for 24 h at 37 °C in a humidified incubator with 5 % CO2. The monolayers were then washed with sterile phosphate buffered saline (0.01 M pH 7.2) and simultaneously the cells were treated with 100 µL from different dilutions of tested sample in fresh maintenance medium and incubated at 37 °C. A control of untreated cells was made in the absence of tested sample. Positive controls containing doxorubicin were also tested as a reference drug for comparison. Six wells were used for each concentration of the test sample. Every 24 hours an observation under the inverted microscope was made. The number of the surviving cells was determined by staining the cells with crystal violet (Mosmann, 1983[42]; Gangadevi and Muthumary, 2007[21]) followed by cell lysing using 33 % glacial acetic acid and reading the absorbance at 590 nm using microplate reader (SunRise, TECAN, Inc, USA) after well mixing. The absorbance values from untreated cells were considered as 100 % proliferation. The number of viable cells was determined using microplate reader as previously mentioned before and the percentage of […] was calculated as [1-(ODt/ODc)] x 100 % where ODt is the mean optical density of wells treated with the tested sample and ODc is the mean optical density of untreated cells. The relation between surviving cells and drug concentration was plotted to get the survival curve of each tumor cell line after treatment with the specified compound. The 50 % inhibitory concentration (IC50), the concentration required to cause toxic effects in 50 % of intact cells, was estimated from graphic plots.
(§2) The in vitro cytotoxic activity was performed by MTT assay (Mosmann, 1983[42]; Alley et al., 1988[6]) against three human carcinoma cell lines: Human colon carcinoma (HCT-116), human breast adenocarcinoma (MCF-7), and human hepatocellular carcinoma (HEPG-2).

[2] = tested on: Human colon carcinoma (HCT-116); assay: Cytotoxic screening; format: cell-based; conditions: HCT-116; for IC50: Homo sapiens, read-out: IC50 HCT-116
Method: as §1, §2

[3] = tested on: human hepatocellular carcinoma (HEPG-2); assay: Cytotoxic screening; format: cell-based; conditions: HepG2, read-out: IC50 HepG-2
Method: as §1, §2

[4] = tested on: Streptococcus pneumoniae (RCMB 010010); assay: Well diffusion assay (inhibition zone); format: cell-based; conditions: RCMB010010, 5 mg/mL in DMSO, Gm+ve, read-out: Inhibition Zone (IZ) diameter, S.P
Method: (§3) The microorganism inoculums were uniformly spread using sterile cotton swabs on a sterile Petri dish malt extract agar (for fungi) and nutrient agar (for bacteria). One hundred cubic millimeters of each sample was added to each well (10 mm-diameter holes were cut in the agar gel, 20 mm apart from one another). The systems were incubated for 24-48 h at 37 °C (for bacteria) and at 28 °C (for fungi). After incubation, the microorganism growth was observed. Inhibition zones of the bacterial and fungal growth were measured in millimeters. Tests were performed in triplicate (Cappuccino and Sherman, 1999[12]; Vanden Berghe and Vlientinck, 1991[62]).
(§4) All the newly synthesized compounds described in this report were screened for both antibacterial and antifungal activity via the reported agar diffusion well method (Vanden Berghe and Vlietinck, 1991[62]). The inhibition zones and minimum inhibitory concentrations (MIC) were determined by the serial dilution method (Cappuccino and Sherman, 1999[12]). The antimicrobial activity of the synthesized compounds was tested against a broad panel of microorganisms including two Gram-positive bacteria: Streptococcus pneumoniae (RCMB 010010) and Bacillus subtilis (RCMB 010067), two Gram-negative bacteria: Pseudomonas aeruginosa (RCMB 010043) and Escherichia coli (RCMB 010052), and four fungi: Aspergillus fumigatus (RCMB 02568), Syncephalastrum racemosum (RCMB 05922), Geotricum candidum (RCMB 05097), and Candida albicans (RCMB 05036). Ampicillin, ciprofloxacin, gentamicin and amphotericin B were used as positive control drugs (Atta-ur-Rahman and Thomsen, 2001[7]; Smania et al., 1999[57]). […] While in the case of Gm-ve bacteria, they had weak activity. In addition, certain strains of fungi were sensitive to tested compounds with an IZ range from 12-25 except Candida albicans.

[5] = tested on: Syncephalastrum racemosum (RCMB 05922); assay: Well diffusion assay (inhibition zone); format: cell-based; conditions: RCMB05922, 5 mg/mL in DMSO, fungi, read-out: Inhibition Zone (IZ) diameter, S.R
Method: as §3, §4

[6] = tested on: Aspergillus fumigatus (RCMB 02568); assay: Well diffusion assay (inhibition zone); format: cell-based; conditions: RCMB02568, 5 mg/mL in DMSO, fungi, read-out: Inhibition Zone (IZ) diameter, A.F
Method: as §3, §4

[7] = tested on: Bacillus subtilis (RCMB 010067); assay: Well diffusion assay (inhibition zone); format: cell-based; conditions: RCMB010067, 5 mg/mL in DMSO, Gm+ve, read-out: Inhibition Zone (IZ) diameter, B.S
Method: as §3, §4

[8] = tested on: Escherichia coli (RCMB 010052); assay: Well diffusion assay (inhibition zone); format: cell-based; conditions: RCMB010052, 5 mg/mL in DMSO, Gm-ve, read-out: Inhibition Zone (IZ) diameter, E.C
Method: as §3, §4

[9] = tested on: Geotricum candidum (RCMB 05097); assay: Well diffusion assay (inhibition zone); format: cell-based; conditions: 5 mg/mL in DMSO; fungi; read-out: Inhibition Zone (IZ) diameter, G.C
Method: as §3, §4

| SMILES | melting point [°C] | IC50 [1] [µg/mL] | IC50 [2] [µg/mL] | IC50 [3] [µg/mL] | zone of inhibition at 5000 µg/mL [4] [mm] | zone of inhibition at 5000 µg/mL [5] [mm] | zone of inhibition at 5000 µg/mL [6] [mm] | zone of inhibition at 5000 µg/mL [7] [mm] | zone of inhibition at 5000 µg/mL [8] [mm] | zone of inhibition at 5000 µg/mL [9] [mm] | IC50 MCF-7 ([1]; MCF-7) [µg/mL] | IC50 HCT-116 [2] [µg/mL] |
| --- | --- | --- | --- | --- | --- | --- | --- | --- | --- | --- | --- | --- |
| N#CC1=C(N)Oc2c(ccc3c(N)cccc23)C1c1cccs1 (centres unmarked) [7e, 2,7-Diamino-4-thiophen-2-yl-4H-benzo[h]chromene-3-carbonitrile] | 232 | 61.9 (≈ 194 µM) | 39.9 (≈ 125 µM) | 33.2 (≈ 104 µM) | 16.3 | 14.2 | 16.4 | 18.2 | 15.2 | 16.9 | – | – |
| N#CC1=C(N)Oc2c(N)cc3ccccc3c2C1c1cccc(C(F)(F)F)c1F (centres unmarked) [4g, 3,5-Diamino-1-(2-fluoro-3-trifluoromethyl-phenyl)-1H-benzo[f]chromene-2-carbonitrile] | 202 | 53.5 (≈ 134 µM) | 30 (≈ 75.1 µM) | 32.4 (≈ 81.1 µM) | – | – | – | – | – | – | – | – |
| COc1cccc2c1C(=O)c1c(O)c3c(c(O)c1C2=O)C[C@@](O)(C(=O)CO)C[C@@H]3O[C@H]1C[C@H](N)[C@H](O)[C@H](C)O1 [Doxorubicin, reference compound] | – | 1.02 (≈ 1.88 µM) | 0.88 (≈ 1.62 µM) | 1.19 (≈ 2.19 µM) | – | – | – | – | – | – | – | – |
| CC[C@]1(O)C[C@@H]2CN(CCc3c([nH]c4ccccc34)[C@@](C(=O)OC)(c3cc4c(cc3OC)N(C)[C@H]3[C@@](O)(C(=O)OC)[C@H](OC(C)=O)[C@]5(CC)C=CCN6CC[C@]43[C@@H]65)C2)C1 [Vinblastine, reference compound] | – | 6.1 (≈ 7.52 µM) | 2.6 (≈ 3.21 µM) | 4.6 (≈ 5.67 µM) | – | – | – | – | – | – | – | – |
| N#CC1=C(N)Oc2cc(O)c(N=Nc3ccc(S(=O)(=O)O)cc3)cc2C1c1ccccc1F (centres unmarked) [13f, 4-[2-Amino-3-cyano-4-(2-fluoro-phenyl)-7-hydroxy-4H-chromen-6-ylazo]-benzenesulfonic acid] | 290 | 79.8 (≈ 171 µM) | 100 (≈ 214 µM) | 68.4 (≈ 147 µM) | 10.6 | 11.6 | 10.3 | 13.4 | 12.1 | 13.4 | – | – |
| N#CC1=C(N)Oc2c(N)cc3ccccc3c2C1c1ccc(Cl)cc1Cl (centres unmarked) [4e, 3,5-Diamino-1-(2,4-dichloro-phenyl)-1H-benzo[f]chromene-2-carbonitrile] | 278 | 1.5 (≈ 3.92 µM) | 2 (≈ 5.23 µM) | 1 (≈ 2.62 µM) | – | – | – | – | – | – | – | – |
| COc1cc(C2C(C#N)=C(N)Oc3c(N)cc4ccccc4c32)cc(OC)c1OC (centres unmarked) [4h, 3,5-Diamino-1-(3,4,5-trimethoxy-phenyl)-1H-benzo[f]chromene-2-carbonitrile] | 225 | 500 (≈ 1240 µM) | 500 (≈ 1240 µM) | 500 (≈ 1240 µM) | – | – | – | – | – | – | – | – |
| Cc1ccc(N=Nc2cc3c(cc2O)OC(N)=C(C#N)C3c2ccc(F)cc2)cc1 (centres unmarked) [13a, 2-Amino-4-(4-fluoro-phenyl)-7-hydroxy-6-p-tolylazo-4H-chromene-3-carbonitrile] | 203 | – | – | – | 19.6 | 17.3 | 20.4 | 23.7 | 14.4 | 21.4 | – | – |
| O=c1[nH]cc(F)c(=O)[nH]1 [5-Flurouracil, reference compound] | – | – | – | – | – | – | – | – | – | – | 3.9 (≈ 30 µM) | 4.3 (≈ 33.1 µM) |
| CC(C)(C)c1ccc(C2C(C#N)=C(N)Oc3cc(O)c(N=Nc4ccc(S(=O)(=O)O)cc4)cc32)cc1 (centres unmarked) [13g, 4-[2-Amino-4-(4-tert-butyl-phenyl)-3-cyano-7-hydroxy-4H-chromen-6-ylazo]-benzenesulfonic acid] | 330 | 92.6 (≈ 184 µM) | 100 (≈ 198 µM) | 81.3 (≈ 161 µM) | 15.2 | 15.2 | 14.3 | 16.1 | 13.6 | 17.1 | – | – |
| N#CC1=C(N)Oc2cc(O)c(N=Nc3ccc([N+](=O)[O-])cc3)cc2C1c1ccc(F)cc1 (centres unmarked) [13c, 2-Amino-4-(4-fluoro-phenyl)-7-hydroxy-6-(4-nitro-phenylazo)-4H-chromene-3-carbonitrile] | 254 | 10.8 (≈ 25 µM) | 12.2 (≈ 28.3 µM) | 10.4 (≈ 24.1 µM) | 14.6 | 10.4 | 13.6 | 14.3 | 9.4 | – | – | – |
| N#CC1=C(N)Oc2c(N)cc3ccccc3c2C1c1ccc(F)cc1F (centres unmarked) [4f, 3,5-Diamino-1-(2,4-difluoro-phenyl)-1H-benzo[f]chromene-2-carbonitrile] | 282 | 6.38 (≈ 18.3 µM) | 9.25 (≈ 26.5 µM) | 5.22 (≈ 14.9 µM) | – | – | – | – | – | – | – | – |
| N#CC1=C(N)Oc2c(N)cc3ccccc3c2C1c1ccsc1 (centres unmarked) [4i, 3,5-Diamino-1-thiophen-3-yl-1H-benzo[f]chromene-2-carbonitrile] | 230 | 386 (≈ 1210 µM) | 500 (≈ 1570 µM) | 188 (≈ 589 µM) | – | – | – | – | – | – | – | – |
